This note sets out measurements from publication PMC11044166, “Synthesis, DFT Calculations, In Silico Studies, and Antimicrobial Evaluation of Benzimidazole-Thiadiazole Derivatives” (ACS Omega, 2024).

The test system of data set [1] is L929 fibroblast cell line. In words: Cytotoxicity MTT assay on healthy cells. Format: cell-based. To be noted: L929 healthy mouse fibroblast cells. As for the experimental part:
The effect of the compounds between 5a–i on the viability of the L929 cell line was analyzed by MTT assay. The MTT method was performed as previously described.[27]
(Tetrazolium dyes change colour on reduction, which living cells bring about.)

Data set [2] deals with C. parapsilosis (ATCC 22019). Kind of data set: Antifungal microdilution MIC. Format: cell-based. To be noted: Lodderomyces parapsilosis, ATCC22019. The procedure:
(§1) The antifungal and antibacterial activities of the synthesized compounds (5a–i) were evaluated in vitro against E. coli (ATCC 25922), S. marcescens (ATCC 8100), K. pneumoniae (ATCC 13883), P. aeruginosa (ATCC 27853), E. faecalis (ATCC 2942), B. subtilis, S. aureus (ATCC 29213), S. epidermidis (ATCC 12228), C. albicans (ATCC 24433), C. krusei (ATCC 6258), and C. parapsilosis (ATCC 22019). The final synthesized compounds were evaluated as antibacterial and antifungal references, in comparison to azithromycin, voriconazole, and fluconazole. Tables 1 and 2 provide a summary of the antimicrobial activity test results and the minimum inhibitory concentrations (MICs) of the compounds (5a–i).
(§2) The antimicrobial activity of the final compounds (5a–i) was screened against eight species of pathogenic bacteria and […] (E. coli (ATCC 25922), S. marcescens (ATCC 8100), K. pneumonia (ATCC 13883), P. aeruginosa (ATCC 27853), E. faecalis (ATCC 2942), B. subtilis (NRRL NRS 744), S. aureus (ATCC 29213), S. epidermidis (ATCC 12228), C. albicans (ATCC 24433), C. glabrata (ATCC 90030), C. krusei (ATCC 6258), and C. parapsilosis (ATCC 22 019)) according to the microdilution standard methods CLSI M07-A9 (2012) and NCCLS M27-A2 (2002), as described in the previous study.[25],[26]
(In broth dilution the organism is exposed to a series of concentrations in liquid medium.)

For the next data set, the system named is C. albicans (ATCC 24433). Kind of data set: Antifungal microdilution MIC. Format: cell-based. To be noted: Candida albicans, ATCC24433. The procedure: as §1, §2
Another data set has as its system C. krusei (ATCC 6258). Kind of data set: Antifungal microdilution MIC. The data set is classed as cell-based. The following applies: Pichia kudriavzevii, ATCC6258. The procedure:
as §1, §2

The test system of the next data set is S. aureus (ATCC 29213). In words: Antibacterial microdilution MIC. Format: cell-based. To be noted: Staphylococcus aureus, ATCC29213. The procedure: as §1, §2
Data set [3] has as its system K. pneumoniae (ATCC 13883). In words: Antibacterial microdilution MIC. The data set is classed as cell-based. The following applies: Klebsiella pneumoniae, ATCC13883. The procedure: as §1, §2
In the next data set the test system is B. subtilis. Kind of data set: Antibacterial microdilution MIC. Format: cell-based. To be noted: Bacillus subtilis. As for the experimental part:
as §1, §2

The test system of data set [4] is S. marcescens (ATCC 8100). Kind of data set: Antibacterial microdilution MIC. The data set is classed as cell-based. To be noted: Serratia marcescens, ATCC8100. The procedure: as §1, §2
The test system of a further data set is E. coli (ATCC 25922). In words: Antibacterial microdilution MIC. The data set is classed as cell-based. To be noted: Escherichia coli, ATCC25922. As for the experimental part: as §1, §2
Data set [5] has as its system P. aeruginosa (ATCC 27853). In words: Antibacterial microdilution MIC. Format: cell-based. The following applies: Pseudomonas aeruginosa, ATCC27853. As for the experimental part:
as §1, §2

The test system of another data set is E. faecalis (ATCC 2942). Kind of data set: Antibacterial microdilution MIC. Format: cell-based. The following applies: Enterococcus faecalis, ATCC2942. The procedure: as §1, §2
Data set [6] relates to S. epidermidis (ATCC 12228). Kind of data set: Antibacterial microdilution MIC. The data set is classed as cell-based. The following applies: Staphylococcus epidermidis, ATCC12228. As for the experimental part:
as §1, §2

[7] abbreviates: C. parapsilosis (ATCC 22019), read-out: MIC.
Setting [8] is: C. albicans (ATCC 24433), read-out: MIC.
[9] abbreviates: C. krusei (ATCC 6258), read-out: MIC.
[10] abbreviates: G: S. aureus (ATCC 29213), Gram-positive, read-out: MIC.
Setting [11] is: C: K. pneumoniae (ATCC 13883), Gram-negative, read-out: MIC.
[12] abbreviates: F: B. subtilis, Gram-positive, read-out: MIC.
[13] abbreviates: B: S. marcescens (ATCC 8100), Gram-negative, read-out: MIC.
[14] abbreviates: A: E. coli (ATCC 25922), Gram-negative, read-out: MIC.
The mark [15] stands for this setting: D: P. aeruginosa (ATCC 27853), Gram-negative, read-out: MIC.
Where [16] appears, read: E: E. faecalis (ATCC 2942), Gram-positive, read-out: MIC.
[17] abbreviates: H: S. epidermidis (ATCC 12228), Gram-positive, read-out: MIC.

Values after ≈ are worked out from the molar mass of the structure shown. Where two headings read alike, the source gives them in different places.

As usually defined, the IC50 is the concentration at which inhibition is half-maximal. For orientation: MIC means the lowest concentration found to suppress growth. As a reminder, the melting point is the temperature of the solid-liquid transition. Take `CNc1nnc(-c2ccc(-c3nc4ccccc4[nH]3)cc2)s1` [Compound 5a, N-Methyl-5-(4-(1H-Benzo[d]imidazole-2-Yl)phenyl)-1,3,4-Thiadiazole-2-Amine]: the melting point was found to be 325.6 °C. In addition, the half-inhibitory concentration (IC50) in [1] was 152 ± 3.64 µM. For the same molecule, the MIC in [2] (setting [7]) amounted to 125 mg/L (≈ 407 µM). Further, the MIC in the data set with C. albicans (ATCC 24433) (setting [8]) worked out at 31.2 mg/L (≈ 102 µM). The minimum inhibitory concentration (MIC) in the data set on C. krusei (ATCC 6258) (setting [9]) is 125 mg/L (≈ 407 µM). Further, in the data set with S. aureus (ATCC 29213) (setting [10]), the minimum inhibitory concentration (MIC) was 7.81 mg/L (≈ 25.4 µM). Besides, the MIC in data set [3] (setting [11]) is 125 mg/L (≈ 407 µM). Moreover, the MIC with B. subtilis (setting [12]) was found to be 125 mg/L (≈ 407 µM). For the same molecule, the minimal inhibitory concentration (MIC) in data set [4] (setting [13]) is 62.5 mg/L (≈ 203 µM). Further, the MIC in the data set on E. coli (ATCC 25922) (setting [14]) was found to be 250 mg/L (≈ 813 µM). Moreover, the MIC in data set [5] (setting [15]) worked out at 62.5 mg/L (≈ 203 µM). The minimal inhibitory concentration (MIC) in the data set on E. faecalis (ATCC 2942) (setting [16]) came to 3.9 mg/L (≈ 12.7 µM). The MIC in data set [6] (setting [17]) amounted to 7.81 mg/L (≈ 25.4 µM).

Take `CCNc1nnc(-c2ccc(-c3nc4ccccc4[nH]3)cc2)s1` [Compound 5b, N-Ethyl-5-(4-(1H-Benzo[d]imidazole-2-Yl)phenyl)-1,3,4-Thiadiazole-2-Amine]: the melting point is 321.6 °C. The same molecule came in with an IC50 in data set [1] of 119 ± 9.64 µM. Further, the minimum inhibitory concentration (MIC) in [2] (setting [7]) was determined as 15.6 mg/L (≈ 48.6 µM). In the data set with C. albicans (ATCC 24433) (setting [8]), the MIC was 7.81 mg/L (≈ 24.3 µM). In addition, in the data set on C. krusei (ATCC 6258) (setting [9]), the MIC turned out to be 31.2 mg/L (≈ 97.2 µM). Besides, in the data set with S. aureus (ATCC 29213) (setting [10]), the MIC came out at 31.2 mg/L (≈ 97.2 µM). For the same molecule, the MIC in data set [3] (setting [11]) worked out at 62.5 mg/L (≈ 194 µM). For the same molecule, the MIC in the data set on B. subtilis (setting [12]) was found to be 125 mg/L (≈ 389 µM). Moreover, the MIC in [4] (setting [13]) stood at 62.5 mg/L (≈ 194 µM). The minimal inhibitory concentration (MIC) with E. coli (ATCC 25922) (setting [14]) stood at 62.5 mg/L (≈ 194 µM). Moreover, in data set [5] (setting [15]), the MIC stood at 62.5 mg/L (≈ 194 µM). Further, in the data set with E. faecalis (ATCC 2942) (setting [16]), the MIC worked out at 3.9 mg/L (≈ 12.1 µM). For the same molecule, the MIC in data set [6] (setting [17]) was found to be 31.2 mg/L (≈ 97.2 µM).

With `ClCCNc1nnc(-c2ccc(-c3nc4ccccc4[nH]3)cc2)s1` [Compound 5c, N-(2-Chloroethyl)-5-(4-(1H-Benzo[d]imidazole-2-Yl)phenyl)-1,3,4-Thiadiazole-2-Amine], the melting point is 191.2 °C. For the same molecule, in data set [2], the MIC is 125 mg/L (≈ 351 µM). The minimal inhibitory concentration (MIC) in the data set with C. albicans (ATCC 24433) was 31.2 mg/L (≈ 87.8 µM). Moreover, in the data set on C. krusei (ATCC 6258), 125 mg/L (≈ 351 µM) was the least that counted as inhibitory (MIC). The molecule further came in with an MIC in the data set with S. aureus (ATCC 29213) of 31.2 mg/L (≈ 87.8 µM). Besides, it took 62.5 mg/L (≈ 176 µM) to inhibit growth in data set [3] (MIC). Besides, the MIC in the data set on B. subtilis amounted to 62.5 mg/L (≈ 176 µM). For the same molecule, in data set [4], the lowest concentration to inhibit growth (MIC) was 62.5 mg/L (≈ 176 µM). Moreover, the MIC against E. coli (ATCC 25922) came to 62.5 mg/L (≈ 176 µM). Moreover, in data set [5], the MIC turned out to be 125 mg/L (≈ 351 µM). In the data set with E. faecalis (ATCC 2942), this molecule gave an MIC of 15.6 mg/L (≈ 43.9 µM). Besides, in [6], the minimal inhibitory concentration (MIC) was 31.2 mg/L (≈ 87.8 µM).

Molecule `Clc1ccccc1Nc1nnc(-c2ccc(-c3nc4ccccc4[nH]3)cc2)s1` [Compound 5d, N-(2-Chlorophenyl)-5-(4-(1H-Benzo[d]imidazole-2-Yl)phenyl)-1,3,4-Thiadiazole-2-Amine] displayed a melting point of 294.8 °C. The molecule also came in with an IC50 in data set [1] of 197 ± 14.7 µM. The MIC in data set [2] (setting [7]) turned out to be 125 mg/L (≈ 309 µM). Besides, the MIC in the data set with C. albicans (ATCC 24433) (setting [8]) was found to be 7.81 mg/L (≈ 19.3 µM). Further, the MIC in the data set on C. krusei (ATCC 6258) (setting [9]) amounted to 125 mg/L (≈ 309 µM). In addition, the MIC in the data set with S. aureus (ATCC 29213) (setting [10]) is 7.81 mg/L (≈ 19.3 µM). Moreover, the MIC in data set [3] (setting [11]) was 125 mg/L (≈ 309 µM). Moreover, the minimum inhibitory concentration (MIC) in the data set with B. subtilis (setting [12]) was determined as 125 mg/L (≈ 309 µM). Moreover, the MIC in data set [4] (setting [13]) was 62.5 mg/L (≈ 155 µM). Moreover, the MIC with E. coli (ATCC 25922) (setting [14]) stood at 125 mg/L (≈ 309 µM). Further, the minimal inhibitory concentration (MIC) in data set [5] (setting [15]) stood at 125 mg/L (≈ 309 µM). Also, the MIC in the data set on E. faecalis (ATCC 2942) (setting [16]) turned out to be 7.81 mg/L (≈ 19.3 µM). Moreover, the MIC in [6] (setting [17]) is 31.2 mg/L (≈ 77.4 µM).

The molecule `c1ccc2[nH]c(-c3ccc(-c4nnc(NC5CCCCC5)s4)cc3)nc2c1` [Compound 5e, N-Cyclohexyl-5-(4-(1H-Benzo[d]imidazole-2-Yl)phenyl)-1,3,4-Thiadiazole-2-Amine] yielded a melting point of 276.5 °C. Also, in data set [1], inhibition was half-maximal at 102 ± 12 µM (IC50). Further, the MIC in data set [2] (setting [7]) turned out to be 125 mg/L (≈ 333 µM). Besides, in the data set on C. albicans (ATCC 24433) (setting [8]), the MIC stood at 7.81 mg/L (≈ 20.8 µM). In addition, the MIC in the data set on C. krusei (ATCC 6258) (setting [9]) came out at 125 mg/L (≈ 333 µM). Besides, the MIC in the data set on S. aureus (ATCC 29213) (setting [10]) turned out to be 125 mg/L (≈ 333 µM). In addition, the MIC in data set [3] (setting [11]) turned out to be 125 mg/L (≈ 333 µM). For the same molecule, the MIC in the data set on B. subtilis (setting [12]) is 250 mg/L (≈ 666 µM). Further, the minimal inhibitory concentration (MIC) in data set [4] (setting [13]) came out at 125 mg/L (≈ 333 µM). Also, the minimum inhibitory concentration (MIC) in the data set with E. coli (ATCC 25922) (setting [14]) was found to be 125 mg/L (≈ 333 µM). Moreover, the MIC in data set [5] (setting [15]) was found to be 125 mg/L (≈ 333 µM). Besides, the MIC with E. faecalis (ATCC 2942) (setting [16]) was 15.6 mg/L (≈ 41.6 µM). In addition, in data set [6] (setting [17]), the MIC is 7.81 mg/L (≈ 20.8 µM).
